Experimental findings from PubChem BioAssay (NCI) are described below.

What all share (test): NCI tumour cell line growth inhibition, 48 h
Assay [1] relates to COLO 205 colon.
Assay [2] has as its system MCF7 breast.
Assay [3] has as its system MDA-MB-435.
Assay [4] has as its system OVCAR-5 ovarian.
For assay [5], the system named is CCRF-CEM leukemia.
The subject of assay [6] is SF-539 CNS.
Assay [7] relates to LOX IMVI melanoma.
The test system of assay [8] is BT-549 breast.
Assay [9] concerns SNB-19 CNS.

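1) Cells in 96-well plates. 2) Compound, 48 h, 5 concentrations. 3) Linear interpolation between surrounding doses. 4) Unreached endpoint = highest concentration. TGI: concentration producing complete growth inhibition.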 Where a SMILES comes first, the peptide text is derived from it. The star is where a group is joined. Cbz = O=C(OCc1ccccc1)*; NHNH2 = NN*

Consider `O=C1CSC2=NC3=C(CSC/C3=C\c3ccccc3)C(c3ccccc3)N12` (centres undefined), for which the TGI in assay [1], in [2], in assay [3], in assay [4], in assay [5] and in assay [6] was more than 100 µM in each case. This molecule yielded a TGI in assay [7] of more than 100 µM.
In the case of `COc1c2c(cc3c1C1(O)Cc4ccc5c(c4C[N+]1(C)CC3)OCO5)OCO2` (centres undefined), the TGI in [1], in assay [2], in assay [3], in assay [8], in [4] and in assay [5] was more than 100 µM throughout. Also, the TGI in assay [9], in [6] and in [7] was more than 100 µM each time.
`COP(=O)(OC)/C(=C/c1cn(C(c2ccccc2)(c2ccccc2)c2ccccc2)cn1)NC=O`: the TGI in assay [1] is 32.9 µM; in assay [2] it was 33.7 µM; in [3] it was 40.1 µM; in [8], 30.6 µM; in [4], 38.2 µM; in assay [5], more than 100 µM. Besides, the TGI in assay [9] is more than 100 µM; in assay [6] it was 28.3 µM; in assay [7] it was 32.5 µM.
Turning to `CC(C)(C)OC(=O)Cn1ncn(NC(=O)Cc2ccccc2)c1=O`, the TGI in [1], in assay [2], in [3], in assay [8], in assay [4] and in assay [5] was more than 10 µM in each case. The TGI in [9], in assay [6] and in assay [7] was more than 10 µM throughout.
For `O=S(=O)(/N=C(\NO)Nc1ccc(Cl)cc1)c1ccccc1`, the TGI in [1] was 51.5 µM; in assay [2], more than 100 µM; in assay [3], more than 64 µM; in assay [8] it was 33.7 µM; in assay [4], 56.6 µM; in [5], more than 100 µM. Moreover, the TGI in assay [9] is more than 89.3 µM; in assay [6], more than 30.6 µM; in [7], 33.6 µM.
Consider `CCCC1(CCC)c2cc(/C=N\O)ccc2-c2ccc(-c3ccc(C(C)(C)C)cc3)cc21`, for which the TGI was more than 100 µM in assay [1]; more than 100 µM in assay [2]; more than 100 µM in [4]; 68.8 µM in assay [5]; more than 100 µM in [9]; more than 100 µM in assay [6]. The same molecule came in with a TGI in assay [7] of more than 100 µM.
Turning to `CC1C2=C(CCCC2=O)N(c2ccc(Cl)cc2)C2=C1C(=O)CCC2`, the TGI in [2], in assay [8], in assay [4], in assay [5], in assay [9] and in assay [6] was more than 100 µM each time. The same molecule returned a TGI in assay [7] of more than 100 µM.
Regarding `CCC(O)c1ccc(N=Cc2ccccc2O)cc1` (centres undefined), the TGI in assay [1], in assay [2], in assay [3], in assay [8], in assay [4] and in assay [9] was more than 100 µM throughout. Besides, the TGI in assay [6] and in [7] was more than 100 µM each time.
For `CC(=O)C(=[N+]=[N-])C(=O)N(C)CCC#N`, the TGI in assay [2], in [3], in assay [8], in assay [4], in assay [5] and in assay [9] was more than 10 µM each time. Further, the TGI in assay [6] and in assay [7] was more than 10 µM throughout.
As to `CC[C@H](C)C1=C(O)[N@+]2([O-])Oc3ccc(-c4c(O)c(O)c(-c5ccc(O)cc5)c(OC(C)=O)c4OC(C)=O)cc3O[C@]2([C@@H](C)CC)C(=O)N1O`, the TGI in [1], in [2], in [3], in assay [8], in assay [4] and in assay [9] was more than 50 µM in each case. Further, the TGI in assay [6] and in [7] was more than 50 µM each time.
`CC1(C)CCCCCC(C)(CCCO)C1=O` (centres undefined): the TGI in [1], in assay [2], in assay [3], in assay [8], in assay [4] and in [5] was more than 100 µM in each case. The TGI in assay [9] and in assay [7] was more than 100 µM each time.
`CCOC(=O)c1cc(C2CCN(c3ccccc3)C2=O)c(C(=O)/C=C(/C)N)[nH]1` (centres undefined): the TGI in assay [1], in assay [2], in assay [3], in assay [8], in assay [4] and in assay [5] was more than 100 µM in each case. Also, the values for the TGI in assay [9] and in [7] were 52.4 µM and more than 100 µM, respectively.
Consider `N#Cc1c(-c2ccc(Cl)cc2)c2c(N=Nc3c(O)ccc4ccccc34)[nH]nc2[nH]c1=O`, for which the TGI in assay [1] was 2.66 µM; in [2], 0.982 µM; in assay [8] it was 0.619 µM; in [4] it was 2.73 µM; in assay [9], 1.91 µM; in assay [6], 1.37 µM. The TGI in [7] is 0.439 µM.
As to `COC(=O)/C=C\C(C#N)(C#N)N=Cc1sccc1C`, the TGI in [1] was 2.53 µM; in assay [2], 3.13 µM; in assay [3] it was 9.84 µM; in [8], 11.1 µM; in [4] it was 14.4 µM; in [5], 4.19 µM. Further, the TGI in assay [9] turned out to be 33.8 µM; in assay [7], 3.31 µM.
Consider `CN(C(=O)Cc1cc(Cl)c(Cl)cc1NC(=O)CN)[C@H]1CCCC[C@@H]1N1CCCC1`, for which the TGI is more than 100 µM in assay [2]; 32.6 µM in [3]; more than 100 µM in [8]; more than 100 µM in [4]; 73.3 µM in assay [5]; more than 100 µM in assay [9]. In addition, in assay [7], the TGI was 41.6 µM.
Consider `CCOC(=O)CCC(NC(=O)OCc1ccccc1)C(=O)NC(CCC(=O)OCC)C(=O)NN` (centres undefined) (Cbz-Glu(OEt)-Glu(OEt)-NHNH2; configuration not given here), for which the TGI in assay [1], in [2], in assay [8], in [4] and in assay [9] was more than 100 µM in each case.
